In US7074761B1, “Peptides and production and use thereof” (Takeda Chemical Ind., Ltd., priority 1996, dated 2006):

System: rat electroencephalogram
Assay: Effect on the rat electroencephalogram (sleep-wakefulness)
Format: in vivo
Method: Using male Jcl:Wistar rats (b. wt. 300˜350 g, approx.) under pentobarbital anesthesia (50 mg/kg, i.p.), the head was immobilized in a rat brain stereotaxic apparatus and the skull was drilled for placement of a screw electrode for cortical derivation and a stainless steel bipolar electrode for hippocampal derivation (A:−2.6, L:2.5, H:3.5, Pellegrino and Cushman Brain Atlas). A bipolar stainless steel needle electrode for recording an electromyogram was also inserted into the muscle layer in the dorsocervical region. All the electrodes were connected to a socket on the cranium and fixed with a dental cement. For administration of the test drug solution into the paracele, a 27-G stainless steel guide cannula was inserted in such a manner that the coordinates of its tip would be A:−0.4, L:1.7, H:1.7, and was fixed together with the EEG electrodes using a dental cement. A stilet was inserted into the guide cannula to prevent plugging of the cannula bore by tissue and blood. After postoperative recovery, the animal was submitted to the experiment. The rat was acclimatized to the experimental environment for at least 1 hour and either hCS-17 dissolved in phosphate buffered saline (PBS) or PBS was administered into the paracele via a 30-G infusion cannula. The electroencephalogram was recorded for 4 hours following administration of the test drug. The dose volume was 5 μl and the dose was 0.1 or 1 nmol. Control animals were similarly dosed with PBS.
The sleep-wakefulness was monitored by visual reading of the polygram and evaluated by frequency analysis and power analysis and classified into the following categories.
During this time, electromyographic activity is high.
(2) SWS1 (Shallow-and-Slow Wave Sleep) and SWS2 (Deep-and-Slow Wave Sleep):
The rat assumes a sleeping posture and delta waves (spindle waves) or high-amplitude, slow-waves appear in the cerebral cortex and high-amplitude, slow-waves, appear in the hippocampal derivation. During this period, electromyographic activity is decreased (SWS1) or absent (SWS2).
(3) PS (Paradoxical Sleep):
Alpha waves (low-amplitude, fast waves) appear in the cerebral cortex and theta waves (rhythmic waves) in the hippocampal derivation. During this period, electromyographic activity is absent.
Using 5˜6 rats per group, hCS-17 and PBS were respectively injected into the same rat to evaluate the relative effect on wakefulness. Analysis for statistical significance was made by paired t-test.

CSCC[C@H](NC(=O)[C@H](CCCNC(=N)N)NC(=O)[C@@H](N)CC(=O)O)C(=O)N1CCC[C@H]1C(=O)N[C@H]1CSSC[C@@H](C(=O)N[C@@H](CCCCN)C(=O)O)NC(=O)[C@H](CO)NC(=O)[C@H](CO)NC(=O)[C@H](Cc2ccccc2)NC(=O)[C@H]([C@@H](C)O)NC(=O)[C@H](CCCCN)NC(=O)[C@H](Cc2c[nH]c3ccccc23)NC(=O)[C@H](Cc2ccccc2)NC(=O)[C@H](Cc2ccccc2)NC(=O)[C@H](CC(N)=O)NC(=O)[C@H](CCCNC(=N)N)NC1=O [hCS-17]
PS (paradoxical sleep) occupancy time vs PBS (0.1 nmol into the paracele): significantly decreased
SWS1 (shallow-and-slow wave sleep) occupancy time vs PBS (0.1 nmol into the paracele): tendency toward decrease
SWS2 (deep-and-slow wave sleep) occupancy time vs PBS (0.1 nmol into the paracele): toward increase
animals showing flattening of the EEG patterns (0.1 nmol into the paracele): 2 out of 5
wakefulness time (percent occupancy of 4 hour EEG recording) vs PBS (0.1 nmol into the paracele): not different from the PBS control group
PS (paradoxical sleep) occupancy time vs PBS (1 nmol into the paracele): decrease
SWS1 (shallow-and-slow wave sleep) occupancy time vs PBS (1 nmol into the paracele): significant decrease
SWS2 (deep-and-slow wave sleep) occupancy time vs PBS (1 nmol into the paracele): increase
animals showing flattening of the EEG patterns (1 nmol into the paracele): 4 out of 6
duration of flattening of cortical and hippocampal EEG patterns (immediately after administration into the paracele): 3˜5 minutes
